In ChEMBL document CHEMBL5614367, “Hydroxamic acid hybrids: Histone deacetylase inhibitors with anticancer therapeutic potency” (Eur J Med Chem, 2023):
Blank lines part the entries; values can stand above or below the molecule they belong to.

Key:
[1] = biological target: T1, Protein deacetylase HDAC6 (Homo sapiens, UniProt Q9UBN7); test: Inhibition of HDAC6 (unknown origin) using ZMAL (Z-Lys(Ac)-AMC as fluorogenic substrate pre-incubated for 15 mins followed by susbtrate addition and measured for 45 mins by fluorescence based analysis
T1 sequence (Q9UBN7 whole entry): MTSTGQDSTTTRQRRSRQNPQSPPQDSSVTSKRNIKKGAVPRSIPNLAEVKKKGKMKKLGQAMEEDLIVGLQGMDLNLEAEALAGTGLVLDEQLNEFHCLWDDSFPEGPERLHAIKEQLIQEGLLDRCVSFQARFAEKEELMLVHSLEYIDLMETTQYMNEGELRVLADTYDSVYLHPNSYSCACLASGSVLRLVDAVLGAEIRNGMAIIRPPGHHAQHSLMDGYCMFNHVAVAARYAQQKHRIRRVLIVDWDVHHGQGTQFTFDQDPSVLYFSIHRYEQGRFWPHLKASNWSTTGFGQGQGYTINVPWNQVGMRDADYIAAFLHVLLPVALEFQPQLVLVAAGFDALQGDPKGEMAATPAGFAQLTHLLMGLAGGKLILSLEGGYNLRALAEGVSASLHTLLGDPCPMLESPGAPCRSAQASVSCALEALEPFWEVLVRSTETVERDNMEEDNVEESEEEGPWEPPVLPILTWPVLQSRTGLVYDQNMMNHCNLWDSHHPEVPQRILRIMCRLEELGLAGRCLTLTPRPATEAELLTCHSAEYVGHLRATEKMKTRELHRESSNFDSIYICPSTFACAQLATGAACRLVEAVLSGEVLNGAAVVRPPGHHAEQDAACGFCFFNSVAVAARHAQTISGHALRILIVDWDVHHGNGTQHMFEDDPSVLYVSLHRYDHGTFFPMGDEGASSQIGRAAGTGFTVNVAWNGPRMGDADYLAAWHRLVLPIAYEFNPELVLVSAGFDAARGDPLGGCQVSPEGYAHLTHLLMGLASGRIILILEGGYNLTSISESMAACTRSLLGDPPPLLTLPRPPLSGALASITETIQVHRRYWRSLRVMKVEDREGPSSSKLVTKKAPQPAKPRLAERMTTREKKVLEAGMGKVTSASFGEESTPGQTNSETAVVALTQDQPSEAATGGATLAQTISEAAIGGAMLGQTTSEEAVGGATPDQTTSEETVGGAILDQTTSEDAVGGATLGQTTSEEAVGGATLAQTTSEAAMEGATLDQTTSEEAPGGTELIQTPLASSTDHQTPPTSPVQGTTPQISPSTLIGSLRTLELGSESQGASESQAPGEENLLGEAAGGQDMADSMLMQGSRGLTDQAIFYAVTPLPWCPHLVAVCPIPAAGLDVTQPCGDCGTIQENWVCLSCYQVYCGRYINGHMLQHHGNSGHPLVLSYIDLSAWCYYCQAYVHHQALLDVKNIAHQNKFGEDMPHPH

[2] = test system: HT-29; test: Antiproliferative activity against human HT-29 cells assessed as reduction in cell growth by MTT assay; format: functional, cell-based
[3] = test system: SH-SY5Y; test: Antiproliferative activity against human SH-SY5Y cells by MTT assay; format: functional, cell-based
[4] = Antiproliferative activity against human MCF-10A cells assessed as reduction in cell viability incubated for 48 hrs by MTT assay; format: toxicity, cell-based
[5] = Antiproliferative activity against human MCF-10F cells assessed as reduction in cell viability incubated for 48 hrs by MTT assay; format: toxicity, cell-based
[6] = Antiproliferative activity against human BEAS-2B cells assessed as reduction in cell viability incubated for 48 hrs by MTT assay; format: toxicity, cell-based
[7] = biological target: T2, Histone deacetylase 2 (Homo sapiens, UniProt Q92769); test: Inhibition of HDAC2 (unknown origin) using Boc-Lys-(Ac)-AMC as substrate incubated for 60 mins by fluorescence based analysis
T2 sequence (Q92769 whole entry): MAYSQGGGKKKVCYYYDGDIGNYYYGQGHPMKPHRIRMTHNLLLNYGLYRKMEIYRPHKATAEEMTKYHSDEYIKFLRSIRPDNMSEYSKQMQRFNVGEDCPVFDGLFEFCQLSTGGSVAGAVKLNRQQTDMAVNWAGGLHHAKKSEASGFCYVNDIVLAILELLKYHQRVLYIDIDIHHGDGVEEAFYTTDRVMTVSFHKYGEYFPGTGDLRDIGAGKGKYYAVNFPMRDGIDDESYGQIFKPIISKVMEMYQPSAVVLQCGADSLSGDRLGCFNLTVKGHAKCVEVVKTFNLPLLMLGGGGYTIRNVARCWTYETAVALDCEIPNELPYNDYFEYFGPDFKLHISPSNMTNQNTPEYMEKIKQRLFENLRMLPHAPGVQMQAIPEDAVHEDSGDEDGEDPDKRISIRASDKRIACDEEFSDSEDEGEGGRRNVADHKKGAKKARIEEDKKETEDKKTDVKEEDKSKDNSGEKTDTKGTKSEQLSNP

[8] = test system: MDA-MB-231; test: Antitumor activity against human MDA-MB-231 cells in nude mouse assessed as tumor growth inhibition at 20 mg/kg, ip administered once daily for 30 days relative to control; format: functional; conditions: MDA-MB-231, 720 h, time 30 day, read-out: TGI
[9] = biological target: T3, Histone deacetylase 1 (Homo sapiens, UniProt Q13547); test: Inhibition of HDAC1 (unknown origin) using 6-carboxyfluorescein peptide as substrate incubated for 18 hrs by fluorescence based assay
T3 sequence (Q13547 whole entry): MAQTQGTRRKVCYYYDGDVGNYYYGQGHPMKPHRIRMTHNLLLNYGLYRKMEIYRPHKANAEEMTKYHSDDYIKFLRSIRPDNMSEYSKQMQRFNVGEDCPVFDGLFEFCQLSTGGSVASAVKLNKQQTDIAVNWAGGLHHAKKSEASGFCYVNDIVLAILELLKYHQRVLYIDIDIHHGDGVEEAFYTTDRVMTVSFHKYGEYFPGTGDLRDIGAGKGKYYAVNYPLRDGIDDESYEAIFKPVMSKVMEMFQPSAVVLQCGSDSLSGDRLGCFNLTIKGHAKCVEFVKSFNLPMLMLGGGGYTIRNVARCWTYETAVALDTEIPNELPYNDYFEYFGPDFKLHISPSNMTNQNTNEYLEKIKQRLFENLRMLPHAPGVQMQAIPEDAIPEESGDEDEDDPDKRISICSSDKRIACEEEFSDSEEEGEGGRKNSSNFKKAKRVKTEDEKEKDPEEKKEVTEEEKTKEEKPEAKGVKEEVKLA

[10] = biological target: T2, Histone deacetylase 2; test: Inhibition of HDAC2 (unknown origin) using 6-carboxyfluorescein peptide as substrate incubated for 18 hrs by fluorescence based assay
[11] = biological target: T1, Protein deacetylase HDAC6; test: Inhibition of HDAC6 (unknown origin) using 6-carboxyfluorescein peptide as substrate incubated for 18 hrs by fluorescence based assay
[12] = test system: A549; test: Antiproliferative activity against human A549 cells assessed as inhibition of cell growth measured after 72 hrs by MTT assay; format: functional, cell-based; conditions: A549, 72 h, pooled result: one value given for 8 cell lines, strains, targets or settings
[13] = Metabolic stability in human liver microsomes assessed as half life incubated for 60 mins in presence of NADPH by LC-MS/MS analysis; format: ADME, Microsome
[14] = Metabolic stability in mouse liver microsomes assessed as half life incubated for 60 mins in presence of NADPH by LC-MS/MS analysis; format: ADME, Microsome
[15] = Metabolic stability in rat liver microsomes assessed as half life incubated for 60 mins in presence of NADPH by LC-MS/MS analysis; format: ADME, Microsome
[16] = Oral bioavailability in female […] at 10 mg/kg; format: ADME, organism-based; conditions: in vivo
[17] = test system: U-87 MG; test: Antitumor activity against human U87 cells xenografted in mouse assessed as tumor growth inhibition at 20 mg/kg, po relative to control; format: functional, U-87MG ATCC; conditions: read-out: TGI
[18] = test system: U-87 MG; test: Antiproliferative activity against human U87 cells assessed as reduction in cell growth incubated for 72 hrs by MTT assay; format: functional, cell-based, U-87MG ATCC
[19] = test system: U-251; test: Antiproliferative activity against human U-251 cells assessed as reduction in cell growth incubated for 72 hrs by MTT assay; format: functional, cell-based; conditions: U-251, 72 h
[20] = test system: MCF7; test: Antiproliferative activity against human MCF7 cells assessed as reduction in cell growth measured for 48 hrs by MTT assay; format: functional, cell-based; conditions: MCF7, 48 h
[21] = test system: HepG2; test: Antiproliferative activity against human HepG2 cells assessed as reduction in cell growth measured for 48 hrs by MTT assay; format: functional, cell-based; conditions: HepG2, 48 h
[22] = test system: HCT-116; test: Antiproliferative activity against human HCT-116 cells assessed as reduction in cell growth measured for 48 hrs by MTT assay; format: functional, cell-based; conditions: HCT-116, 48 h
[23] = test system: A549; test: Antiproliferative activity against human A549 cells assessed as reduction in cell growth measured for 48 hrs by MTT assay; format: functional, cell-based; conditions: A549, 48 h
[24] = biological target: T3, Histone deacetylase 1; test: Inhibition of human HDAC1 by colorimetric ELISA assay
[25] = biological target: T2, Histone deacetylase 2; test: Inhibition of human HDAC2 by colorimetric ELISA assay
[26] = test system: HL-60; test: Antiproliferative activity against human HL-60 cells assessed as cell growth inhibition by MTT assay; format: functional, cell-based
[27] = test system: U-937; test: Antiproliferative activity against human U-937 cells assessed as cell growth inhibition by MTT assay; format: functional, cell-based

Compound: O=C(CCCCCC(=O)N(Cc1ccc(Br)s1)c1ccc(OCCN2CCOCC2)cc1)NO
IC50 at 48 h [4]: > 100000 nM | IC50 at 48 h [5]: > 100000 nM | IC50 at 48 h [6]: > 100000 nM | IC50 [7]: 3.22 nM | inhibition in vivo at 20 mg/kg [8]: ~95%

Compound: COc1cc(/C=C/C(=O)CC(=O)/C=C/c2ccc(/C=C/C(=O)NO)cc2)ccc1O
IC50 [9]: 0.38 nM | IC50 [10]: 0.38 nM | IC50 [11]: 0.38 nM | IC50 [12]: 5330 nM | half-life [13]: 91.6 min | half-life [14]: 32.7 min | half-life [15]: 40.7 min | bioavailability [16]: 40.2% | inhibition in vivo at 20 mg/kg [17]: 52.1%

Compound: O=C(O)CCCc1ccc(N(CCCl)CCCl)cc1 [CHLORAMBUCIL]
IC50 [26]: 21100 nM | IC50 [27]: 37700 nM

More lines, now with the values ahead:

IC50 [1]: 169 nM | IC50 [2]: 4990 nM | IC50 [3]: 7630 nM
Compound: Cc1nc(C)c(C(=O)Nc2cccc(C(=O)NO)c2)nc1C

IC50 [18]: 5500 nM | IC50 [19]: 5500 nM
Compound: O=C(CCCCCNC(=O)c1cc(O)c2c(c1)C(=O)c1cccc(O)c1C2=O)NO

IC50 [20]: 536 nM | IC50 [21]: 536 nM | IC50 [22]: 536 nM | IC50 [23]: 536 nM | IC50 [24]: 60 nM | IC50 [25]: 60 nM
Compound: COc1cc(/C=C/C(=O)c2ccc(OCCCCCC(=O)NO)cc2)cc(OC)c1OC
